Values joined by “and” are separate entries in the source; they are usually repeats but may differ in a detail not shown here. Equal values may be shown once.

This is an account of results in US10280156B2, “Heteroaromatic chalcone derivatives and their medical use” (Medizinische Universität Wien, priority 2014, dated 2019).

For one data set, the system named is CCRF. Description: Viability test on CCRF cells. In kind it is cell-based, human. The procedure: (§1) JURKAT and CCRF-CEM (T-cell acute lymphoblastic leukemia), HL60 and K562 representing acute and chronic myeloid leukemia, respectively, the chronic lymphocytic leukemia cell line MEC-1, and the diffuse large B-cell lymphoma cell line U-2940 were cultured in Gibco RPMI 1640+GlutaMAX (Life Technologies, Carlsbad, Calif., USA) supplemented with 10% fetal bovine serum gold (FBS gold; PAA Laboratories, Pasching, Austria) and 1% PenStrep (100 U/ml penicillin and 100 μg/ml streptomycin; PAA Laboratories), and maintained at 37° C. in humidified atmosphere with 5% CO2. […]
(§2) All experiments with hematological cell lines were done using phenol red-free RPMI 1640+L-glutamine (PAA Laboratories) supplemented with 1% PenStrep and 10% FBS gold, except experiments with OCI-Ly7 which were carried out in Gibco IMEM+GlutaMAX and 25 mM HEPES containing 20% FBS gold and 1% PenStrep. Cells were incubated in triplicates with increasing concentrations of the compounds for 48 h, changes in viability were determined using the cell proliferation and cytotoxicity assays EZ4U (Biomedica Group, Austria) and CellTiter-Blue Cell Viability Assay (Promega, Madison, Wis., USA) following instructions of the manufacturers. IC50 values were calculated from two independent experiments using GraphPad Prism 5 software. […]

For data set [1], the system named is primary cells from CLL patients. Nature of the data set: Combination treatment of CLL primary cells with compound 15 and a further anticancer agent. In kind it is cell-based, human. As for the experimental part:
Peripheral blood mononuclear cells (PBMCs) of CLL patients were incubated in increasing concentrations of one of the above-mentioned anticancer agents alone or increasing anticancer agent concentrations plus compound 15 in two different concentrations under standard conditions for 48 h before viability was determined (CellTiterBlue, Promega). Primary cells from 5 (ABT199) or 6 patients (CAL101, PCI32765) were included.

For the next data set, the system named is M2-10B4. Nature of the data set: Viability test on mouse fibroblast cell line M2-10B4, 48 h. In kind it is cell-based. As to conditions: Mus musculus, M210B4, 48 h, 48 h incubation; mouse fibroblast cell line. The procedure:
(§3) All experiments with hematological cell lines were done using phenol red-free RPMI 1640+L-glutamine (PAA Laboratories) supplemented with 1% PenStrep and 10% FBS gold, except experiments with OCI-Ly7 which were carried out in Gibco IMEM+GlutaMAX and 25 mM HEPES containing 20% FBS gold and 1% PenStrep. Cells were incubated in triplicates with increasing concentrations of the compounds for 48 h, changes in viability were determined using the cell proliferation and cytotoxicity assays EZ4U (Biomedica Group, Austria) and CellTiter-Blue Cell Viability Assay (Promega, Madison, Wis., USA) following instructions of the manufacturers. IC50 values were calculated from two independent experiments using GraphPad Prism 5 software.
Structurally seen, the small molecule compound 1 represents a typical chalcone scaffold. It is characterized by an ortho-ethoxy-substituted phenyl part as ring A and a 2-naphthyl moiety symbolizing ring B. The focus of the present study was to guide the systematic identification of a growth inhibitor with specificity to neoplastic cells, as cytotoxicity towards healthy cells is mostly associated with adverse effects, which can be related to morbidity and mortality of the patient (Milligan D W et al. Brit J Haematol 2006, 135, 450-474). To discriminate in vitro between structural elements necessary for potent cytotoxicity towards tumor cells which, at the same time, clearly show less activity on normal cells, the compounds were additionally tested on the murine bone marrow fibroblast cell line M2-10B4. This cell line is regularly used as feeder layer when cultured with patient cells providing additional support and survival signals in particular in drug screens (Kurtova A V et al. Blood 2009, 114, 4441-4450).
(§4) Initially, compounds were biologically tested in six concentration steps (0.1 μM; 1 μM; 5 μM; 10 μM; 50 μM; and 100 μM) using the CellTiter-Blue Cell Viability Assay (Promega, Madison, Wis., USA) and an incubation time of 48 hours. […] IC50 values were calculated from at least two independent experiments with 3 replicates each. In order to evaluate the biologic activity of the new compounds, cytotoxicity was compared to that of fludarabine, an already approved drug for the treatment of various B-cell malignancies. […] Differences in IC50 values for the different cell types can be explained by the biological and genetic particularities of each subtype of B-cell Non-Hodgkin lymphoma (Stacchini A et al. Leukemia Res 1999, 23, 127-136; Sambade C et al. Int J Cancer 2006, 118, 555-563; Chang H et al. Leukemia lymphoma 1995, 19, 165-171; Tweeddale M E et al. Blood 1987, 69, 1307-1314; Tweeddale M et al. Blood 1989, 74, 572-578).

The subject of the next data set is HL60. Nature of the data set: Viability test on HL60 cells. In kind it is cell-based, human. As for the experimental part: as §1, §2
In the next data set the test system is K562. Description: Viability test on K562 cells. In kind it is cell-based, human. The conditions noted are these: already at low concentrations, no further increase of toxicity at increasing concentrations. The procedure:
as §1, §2

In another data set the test system is SU-DHL6. Nature of the data set: Viability test on SU-DHL6 cells. In kind it is cell-based, human. As for the experimental part: as §3
Hematologic malignancies are highly heterogeneous in their biology and behavior. This and the fact that some patient groups are resistant to therapy underlines the urgent need for new therapeutic drugs. Compound 15 has therefore been tested on other cell lines representing a variety of hematologic neoplasms: two T-cell acute leukemia cell lines (CCRF, Jurkat), two myeloid leukemia cell lines (HL60, K562), and two additional B-cell lines (SU-DHL6, SU-DHL9). Viability was assessed as described in the methods section above. […] An exception was the chronic myeloid leukemia line K562. […]

A further data set deals with OCI-Ly7. Nature of the data set: Viability test on OCI-Ly7 cells, 48 h. As to conditions: 48 h incubation; nd = no significant cytotoxic activity up to 100 μM. In kind it is cell-based, human. The procedure:
(§5) JURKAT and CCRF-CEM (T-cell acute lymphoblastic leukemia), HL60 and K562 representing acute and chronic myeloid leukemia, respectively, the chronic lymphocytic leukemia cell line MEC-1, and the diffuse large B-cell lymphoma cell line U-2940 were cultured in Gibco RPMI 1640+GlutaMAX (Life Technologies, Carlsbad, Calif., USA) supplemented with 10% fetal bovine serum gold (FBS gold; PAA Laboratories, Pasching, Austria) and 1% PenStrep (100 U/ml penicillin and 100 μg/ml streptomycin; PAA Laboratories), and maintained at 37° C. in humidified atmosphere with 5% CO2. The diffuse large B-cell lymphoma cell line OCI-LY7 was cultured in Gibco IMDM+GlutaMAX and 25 mM HEPES (Life Technologies) containing 20% FBS gold and 1% PenStrep.
as §3, §4

The test system of a further data set is U-2940. Description: Viability test on U-2940 cells, 48 h. In kind it is cell-based, human. As to conditions: 48 h incubation; nd = no significant cytotoxic activity up to 100 μM. As for the experimental part: as §5, §3, §4
The next data set relates to MEC1. Nature of the data set: Viability test (CellTiter-Blue/EZ4U) on MEC1 cells, 48 h. In kind it is cell-based, human. As to conditions: Homo sapiens, MEC1, 48 h, 48 h incubation; nd = no significant cytotoxic activity up to 100 μM. The procedure: as §5, §3, §4

As a reminder, the IC50 is the point on the concentration scale where inhibition reaches its midpoint. Read a high IC50 as weaker potency. For orientation: melting point means the temperature of the solid-liquid transition. For `CCOc1ccccc1C(=O)/C=C/c1cc2ccccc2[nH]1` [Compound 15, 1-(2-Ethoxyphenyl)-3-(1H-indole-2-yl)-2-propen-1-one], the melting point is 124 to 126 °C. Also, the “viability, % of control” value in the data set on CCRF (CCRF, at concentrations <1 μM) was “less than 30 % of control”. Also, in the data set on CCRF (Homo sapiens, T-cell acute leukemia, nd = no significant cytotoxic activity up to 100 μM), half-maximal inhibition (IC50) was put at 30 nM. The “effect of adding compound 15 to ABT199 on cytotoxicity” value in [1] (combination with ABT199, N=5, 48 h) is reported as “synergistic effect”. The “effect of adding compound 15 to CAL101 on cytotoxicity” value in [1] (combination with CAL101 (idelalisib), N=6, 48 h) was “synergistic effect”. In addition, the “effect of adding compound 15 to PCI32765 on cytotoxicity” value in data set [1] (combination with PCI32765 (ibrutinib), N=6, 48 h) is recorded as “synergistic effect”. Moreover, the IC50 in the data set on M2-10B4 worked out at 19200 nM. In the data set with HL60 (HL60, at concentrations <1 μM), the “viability, % of control” value is reported as “less than 30 % of control”. In the data set with HL60 (Homo sapiens, HL-60, myeloid leukemia, nd = no significant cytotoxic activity up to 100 μM), this compound came in with an IC50 of 20 nM. Moreover, the “viability reduced down to” value with K562 was found to be 60%. This compound also displayed an IC50 in the data set with SU-DHL6 (Homo sapiens, SU-DHL-6, B-cell lymphoma, nd = no significant cytotoxic activity up to 100 μM) of 60 nM. Besides, the “viability, % of control” value in the data set with SU-DHL6 (SU-DHL6, at concentrations <1 μM) is on record as “less than 30 % of control”. The compound also yielded an IC50 in the data set with OCI-Ly7 of 2900 nM. For the same compound, the IC50 in the data set on U-2940 was 50 nM and 52 nM. In addition, the IC50 with MEC1 amounted to 22 nM.
